Data published in US6436419B1, “Antimicrobial treatment of polymers” (The Regents of the University of California, priority 1998, dated 2002).

What was measured:
[1] = Add-on rates of quaternary ammonium salts on dyed and undyed nylon fabrics and weight loss after Launder-Ometer washing; type: physicochemical; conditions: for Add-on rate after 7 washes (%): Launder-Ometer, AATCC test method 61; for Total weight loss after the + 7 washes (%): after finishing and 7 Launder-Ometer washes
Description: Nylon fabrics were dyed with 1% on weight fabric (o.w.f.) dye solutions at 95° C. for 90 min. The liquor ratio was 1:50, and the pH of the dye bath was adjusted to pH=3.5 with acetic acid. The dyed fabrics were washed with the AATCC standard detergent after dyeing and then cured at 120° C. for 15 minutes.
The antibacterial finishing baths were prepared by dissolving quaternary ammonium salts in distilled water. The pH value was adjusted to pH=4 with acetic acid. The dyed nylon fabric was dipped in the antibacterial agent solution, padded to a wet pick up of about 60% and cured at an elevated temperature for an extended period.
The finished fabric was washed in a Launder-Ometer, according to AATCC Test Method 61-1994 to evaluate the washing durability. One cycle of Launder-Ometer washing test by this AATCC Test Method is equivalent to about five machine washes in a home laundry practice.
The nylon fabrics were first dyed with two different acid dyes at concentration of 1% on weight fabric (o.w.f) and then treated with the quaternary ammonium salts.
The weight loss of a fabric sample is calculated based on its total weight change after the finishing and washing.

[2] = as above; type: physicochemical; conditions: 6% quaternary salt solution, pH = 3.7, cured 120° C. 30 minutes
[3] = nylon fabric dyed with Acid Blue 113 1% owf
[4] = nylon fabric dyed with Acid Red 88 1% owf

SMILES	Add-on rate after 7 washes (%) ([1]; Undyed nylon fabric)	Total weight loss after the + 7 washes (%) ([1]; Undyed nylon fabric)	Add-on rate after 7 washes (%) [1, 3] [%]	Total weight loss after the + 7 washes (%) [1, 3] [%]	Add-on rate after 7 washes (%) [1, 4] [%]	Total weight loss after the + 7 washes (%) [1, 4] [%]	Add-on rate (%) ([2]; Undyed nylon fabric)	Add-on rate (%) [2, 3] [%]	Add-on rate (%) [2, 4] [%]
CCCCCCCCCCCC[N+](C)(C)CC(O)CCl.[Cl-] (stereo not drawn) [Monomer, N-(3-chloro-2-hydroxypropyl)-N,N-dimethyldodecylammonium chloride]	−1.81	−0.73	−2.44	−0.43	−1.87	−0.09	1.08	2.01	1.78
CCCCCCCCCCCC[N+](C)(C)CC(O)C[N+](C)(C)CCCCCCCCCCCC.[Cl-].[Cl-] [Dimer, 1,3-Bis-(N,N-dimethyldodecylammonium chloride)-2-propanol]	−3.20	−0.47	−2.54	−0.25	−3.08	−0.09	2.73	2.29	2.99
CCCCCCCCCCCC[N+](C)(C)C.[Br-] [DTAB, Dodecyltrimethyl ammonium bromide]	−3.51	−1.00	−3.48	0.28	−3.39	−0.04	2.51	3.86	3.35
